Where two headings read alike, the source gives them in different places.
How the values were obtained:
[1] = test system: KHJJ murine mammary carcinoma tumors; experiment: Auger electron therapy: tumor volume after 103Pd brachytherapy seed implantation with or without PtTMPyP(4); format: in vivo, BALB/C mice; details: for Tumor volume, mm^3 ± standard error, Auger Electron Therapy: 103 Pd seeds in combination with PtTMPyP(4): with 103Pd seeds
Method: General description. On day 0, after measurements of the length, width and height of the tumors, palladium-103 brachytherapy seeds were implanted into 12 KHJJ murine mammary carcinoma tumors borne on the thighs of 12 BALB/C mice. Twenty-four hours after seed implantation, 40 mg/kg, platinum (II)-tetrakis(N-methyl-4-pyridyl) porphyrin [PtTMPyP(4)], in the form of its chloride salt, was administered i.p. as a single bolus injection of 200 μl to the six mice undergoing AET. Tumor volume measurements were obtained two to three times weekly. Drug was also administered on days 5 (30 mg/kg), and 19 (20 mg/kg) following seed implantation.
Tumor. Prior to the experiment, tumors were excised from the donor mouse in a sterile environment, and fragmented into 1-2 mm sections in a Petri dish. After anesthetizing each mouse with ketamine/xylazine (10:1), a small slit was prepared through the skin on the thigh, ˜5 mm above and lateral to the distal femur of the right knee. To assure subcutaneous implantation of the tumor fragment, a magnifying glass with a fluorescent light was used to observe the sheen on the fascia surrounding the three sides of the ‘pocket’ produced by the slit. An 18 gauge trochar, into whose bevel a tumor fragment had been inserted, was positioned into the ‘pocket’. A stylette was used to push the fragment into the ‘pocket’. Tumors were implanted either 12 or 15 days prior to the experiment. Upon verification of tumor growth, those tumors of adequate size to accommodate the seed implant, were randomized into treatment groups (AET or radiation only) using a coin flip.
Measurements of tumor volume. Using a digital caliper, the length, width, and height of the tumors were measured. Being ellipsoid in their growth pattern, tumor volume was determined according to the formula, […].
Seed implantation. On day 0, after weighing the mice and measuring the length, width and height of the tumors, palladium-103 brachytherapy seeds (˜2.2 mCi in activity; Theragenics) were implanted into the thigh tumors as follows. The anesthetized mouse was positioned on a board whose angle was ˜45°. The tumor bearing leg was inserted through an elastic band, secured through the board. The foot was taped to the board. An 18 gauge trochar with a funnel head that was supported by a brace on a ring stand, was inserted into the center to the tumor. The seed, previously sterilized by dipping in ETOH, rinsing in a sterile PBS solution, and air-dried, was placed in the funnel of the trochar using long-nosed forceps. A stylette was used to insert the seed into the tumor, after which the trochar was withdrawn from the tumor and Neosporin was applied to the wound.
Drug delivery. The day after seed implantation (day 1), 40 mg/kg of PtTMPyP(4), in the form of its chloride salt, was administered intraperitoneally to the mice in the AET treatment group. On day 5, […] of PtTMPyP(4) was injected i.p., and on day 19, a dosage of 20 mg/kg was injected i.p.

DNA = details: for Fluorescent Intensity: 7.5 μg DNA, 7.5 μl ethidium bromide buffer
Method: A stock solution of 1.26 μM ethidium bromide containing 2 mM HEPES, 8 mM sodium chloride and 0.05 mM EDTA (pH=7) was prepared.

B16 melanoma = details: 40 mg/kg intraperitoneal, samples up to 72 hours after injection, compared with TCA-insoluble fraction
Method: Tissue samples were taken up to 72 hours after the injection. The samples were treated with trichloroacetic acid (TCA), such that the TCA-insoluble fraction contained the DNA and high molecular weight proteins, and the TCA-soluble fraction contained the cytoplasmic and membrane components of the cells. Inductively-coupled plasma mass spectrometry (ICP-MS) was used to measure the concentration of indium ions in the TCA-insoluble and TCA-soluble fractions.

SMILES: CN1C=CC(c2c3nc(c(C4=CCN(C)C=C4)c4ccc([nH]4)c(C4=CCN(C)C=C4)c4nc(c(C5=CCN(C)C=C5)c5ccc2[nH]5)C=C4)C=C3)=CC1.[Pt+2] [PtTMPyP(4), platinum (II)-tetrakis(N-methyl-4-pyridyl) porphyrin]
- effect on tumor growth compared with radiation alone or no treatment (in words) ([1]; AET group, FIG. 4, mean tumor volume): significant delay in tumor control
- Tumor volume, mm^3 ± standard error, Auger Electron Therapy: 103 Pd seeds in combination with PtTMPyP(4) ([1]; day 0 post seed implantation (before first drug dose)): 117.5 ± 18.6 mm^3
- Tumor volume, mm^3 ± standard error, Auger Electron Therapy: 103 Pd seeds in combination with PtTMPyP(4) ([1]; day 3 post seed implantation, i.p. 40 mg/kg day 1, 30 day 5, 20 day 19): 112.8 ± 15.3 mm^3
- Tumor volume, mm^3 ± standard error, Auger Electron Therapy: 103 Pd seeds in combination with PtTMPyP(4) ([1]; day 5 post seed implantation, i.p. 40 mg/kg day 1, 30 day 5, 20 day 19): 110.6 ± 25.7 mm^3
- Tumor volume, mm^3 ± standard error, Auger Electron Therapy: 103 Pd seeds in combination with PtTMPyP(4) ([1]; day 7 post seed implantation, i.p. 40 mg/kg day 1, 30 day 5, 20 day 19): 121.5 ± 29.4 mm^3
- Tumor volume, mm^3 ± standard error, Auger Electron Therapy: 103 Pd seeds in combination with PtTMPyP(4) ([1]; day 9 post seed implantation, i.p. 40 mg/kg day 1, 30 day 5, 20 day 19): 123.1 ± 26.9 mm^3
- Tumor volume, mm^3 ± standard error, Auger Electron Therapy: 103 Pd seeds in combination with PtTMPyP(4) ([1]; day 12 post seed implantation, i.p. 40 mg/kg day 1, 30 day 5, 20 day 19): 150.7 ± 31.5 mm^3
- Tumor volume, mm^3 ± standard error, Auger Electron Therapy: 103 Pd seeds in combination with PtTMPyP(4) ([1]; day 15 post seed implantation, i.p. 40 mg/kg day 1, 30 day 5, 20 day 19): 116.5 ± 44.9 mm^3
- Tumor volume, mm^3 ± standard error, Auger Electron Therapy: 103 Pd seeds in combination with PtTMPyP(4) ([1]; day 19 post seed implantation, i.p. 40 mg/kg day 1, 30 day 5, 20 day 19): 175.6 ± 69.2 mm^3
- Tumor volume, mm^3 ± standard error, Auger Electron Therapy: 103 Pd seeds in combination with PtTMPyP(4) ([1]; day 21 post seed implantation, i.p. 40 mg/kg day 1, 30 day 5, 20 day 19): 200.1 ± 81.9 mm^3
- Tumor volume, mm^3 ± standard error, Auger Electron Therapy: 103 Pd seeds in combination with PtTMPyP(4) ([1]; day 23 post seed implantation, i.p. 40 mg/kg day 1, 30 day 5, 20 day 19): 232.6 ± 91.2 mm^3
- Tumor volume, mm^3 ± standard error, Auger Electron Therapy: 103 Pd seeds in combination with PtTMPyP(4) ([1]; day 27 post seed implantation, i.p. 40 mg/kg day 1, 30 day 5, 20 day 19): 280.2 ± 90.6 mm^3
- factor between mean tumor volume with seeds only and with seeds plus drug ([1]; day 32, 103Pd seeds alone versus 103Pd seeds plus PtTMPyP(4)): 5
- Tumor volume, mm^3 ± standard error, Auger Electron Therapy: 103 Pd seeds in combination with PtTMPyP(4) ([1]; day 32 post seed implantation, i.p. 40 mg/kg day 1, 30 day 5, 20 day 19, 40 mg/kg): 356.2 ± 133.9 mm^3

SMILES: C[n+]1ccc(-c2c3nc(c(-c4cc[n+](C)cc4)c4ccc([n-]4)c(-c4cc[n+](C)cc4)c4nc(c(-c5cc[n+](C)cc5)c5ccc2[n-]5)C=C4)C=C3)cc1.[In+3] [In^3+-tetra(N-methyl-4-pyridyl)-porphyrin]
- Fluorescent Intensity (DNA; 0.25 μg complex): 85%
- Fluorescent Intensity (DNA; 0.50 μg complex): 73%
- Fluorescent Intensity (DNA; 0.75 μg complex): 63%
- Fluorescent Intensity (DNA; 1.00 μg complex): 54%
- Fluorescent Intensity (DNA; 1.25 μg complex): 47%
- Fluorescent Intensity (DNA; 1.50 μg complex): 41%
- Fluorescent Intensity (DNA; 1.75 μg complex): 35%
- Fluorescent Intensity (DNA; 2.00 μg complex): 30%
- Fluorescent Intensity (DNA; 2.25 μg complex): 26%
- Fluorescent Intensity (DNA; 2.50 μg complex): 22%
- Fluorescent Intensity (DNA; 2.75 μg complex): 19%
- Fluorescent Intensity (DNA; 3.00 μg complex): 16%
- Fluorescent Intensity (DNA; 3.25 μg complex): 13.4%
- Fluorescent Intensity (DNA; 3.50 μg complex): 12%
- Fluorescent Intensity (DNA; 3.75 μg complex): 10%
- Fluorescent Intensity (DNA; 4.00 μg complex): 9%
- binding to DNA by displacement of ethidium bromide (in words) (DNA; fluorescence decreases with increasing complex concentration, FIG. 2): displaces the ethidium bromide and becomes bound to the DNA
- number of indium ions per cell in the TCA-soluble fraction (cytoplasmic and membrane components) (B16 melanoma): lesser amount

Reference: US20050112058A1, “Auger effect-based cancer therapy method” (Ben-Gurion University of the Negev, priority 2002, published 2005)
